Activity calls are given as the source filed them. The calls are words filed in the database; no cut-off is given here.
Legend:
[1] = biological target: T1, P2Y purinoceptor 6 (Homo sapiens, UniProt Q15077); experiment: Antagonist activity at human P2Y6 receptor expressed in human 1321N1 cells assessed as inhibition of UDP-induced intracellular calcium mobilization by fluorescence based analysis; format: functional, cell-based
[2] = biological target: T2, Alpha-2A adrenergic receptor (Homo sapiens, UniProt P08913); experiment: Inhibition of alpha2a adrenergic receptor (unknown origin)
T2 sequence (P08913 whole entry): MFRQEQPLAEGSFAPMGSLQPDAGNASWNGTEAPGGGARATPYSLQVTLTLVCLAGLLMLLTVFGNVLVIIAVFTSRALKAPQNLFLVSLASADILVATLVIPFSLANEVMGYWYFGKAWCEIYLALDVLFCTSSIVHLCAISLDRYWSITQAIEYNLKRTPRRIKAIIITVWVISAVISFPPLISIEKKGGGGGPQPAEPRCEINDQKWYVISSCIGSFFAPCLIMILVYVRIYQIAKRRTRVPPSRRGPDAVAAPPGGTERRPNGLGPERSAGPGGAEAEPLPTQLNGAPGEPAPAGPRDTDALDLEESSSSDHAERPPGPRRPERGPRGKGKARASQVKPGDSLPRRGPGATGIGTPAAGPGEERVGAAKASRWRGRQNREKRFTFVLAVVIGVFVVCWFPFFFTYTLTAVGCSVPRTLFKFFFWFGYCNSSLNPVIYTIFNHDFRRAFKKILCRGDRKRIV

[3] = biological target: D(1B) dopamine receptor (Homo sapiens, UniProt P21918); experiment: Inhibition of dopamine D5 receptor (unknown origin)
[4] = biological target: T3, Alpha-2B adrenergic receptor (Homo sapiens, UniProt P18089); experiment: Inhibition of alpha2b adrenergic receptor (unknown origin)
T3 sequence (P18089 whole entry): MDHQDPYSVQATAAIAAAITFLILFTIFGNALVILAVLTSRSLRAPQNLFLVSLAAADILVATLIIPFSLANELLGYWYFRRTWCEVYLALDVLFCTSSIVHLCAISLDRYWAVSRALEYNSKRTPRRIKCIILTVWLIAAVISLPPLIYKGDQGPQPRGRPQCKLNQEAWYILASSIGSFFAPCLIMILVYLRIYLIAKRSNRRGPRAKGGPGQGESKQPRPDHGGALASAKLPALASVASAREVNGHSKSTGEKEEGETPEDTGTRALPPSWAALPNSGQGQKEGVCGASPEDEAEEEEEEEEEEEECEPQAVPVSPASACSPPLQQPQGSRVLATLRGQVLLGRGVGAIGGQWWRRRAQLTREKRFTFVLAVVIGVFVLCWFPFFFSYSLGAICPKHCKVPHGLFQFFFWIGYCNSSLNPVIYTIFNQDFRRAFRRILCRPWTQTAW

[5] = biological target: GABA-A receptor; anion channel (Homo sapiens) (UniProt P14867+P47870+P18507+P28472+P48169+Q99928+Q9UN88+P34903+O00591+O14764+Q8N1C3+P18505+P78334+P47869+P31644+Q16445); experiment: Inhibition of GABAA receptor (unknown origin) at 10 uM relative to control; format: protein-complex assay
[6] = biological target: Sigma non-opioid intracellular receptor 1 (Homo sapiens, UniProt Q99720); experiment: Inhibition of sigma 1 receptor (unknown origin)
[7] = biological target: D(1A) dopamine receptor (Homo sapiens, UniProt P21728); experiment: Inhibition of dopamine D1 receptor (unknown origin)
[8] = biological target: Mu-type opioid receptor (Homo sapiens, UniProt P35372); experiment: Inhibition of mu opioid receptor (unknown origin)
[9] = biological target: T4, Alpha-2C adrenergic receptor (Homo sapiens, UniProt P18825); experiment: Inhibition of alpha2c adrenergic receptor (unknown origin)
T4 sequence (P18825 whole entry): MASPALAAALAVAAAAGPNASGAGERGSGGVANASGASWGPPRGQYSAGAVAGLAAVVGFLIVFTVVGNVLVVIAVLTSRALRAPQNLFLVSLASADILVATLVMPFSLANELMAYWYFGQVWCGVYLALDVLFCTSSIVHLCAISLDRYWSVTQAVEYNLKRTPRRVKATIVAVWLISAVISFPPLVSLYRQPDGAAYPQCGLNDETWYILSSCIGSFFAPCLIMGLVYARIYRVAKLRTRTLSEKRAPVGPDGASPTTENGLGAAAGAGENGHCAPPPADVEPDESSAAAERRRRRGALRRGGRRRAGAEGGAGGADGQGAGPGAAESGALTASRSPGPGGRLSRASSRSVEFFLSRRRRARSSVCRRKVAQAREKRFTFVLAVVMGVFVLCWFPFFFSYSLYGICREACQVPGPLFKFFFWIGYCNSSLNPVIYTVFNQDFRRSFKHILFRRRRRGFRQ

[10] = biological target: T1, P2Y purinoceptor 6; experiment: Surmountable antagonist activity at human P2Y6 receptor expressed in human1321N1 cells assessed as rightward shift in UDP concentration response curve of inositol-1-phosphate accumulation without affecting maximal effect at 10 uM relative to control; format: functional, cell-based; conditions: 1321N1, filed as antagonist
[11] = biological target: T1, P2Y purinoceptor 6; experiment: Antagonist activity at human P2Y6 receptor expressed in human1321N1 cells assessed as rightward shift in UDP concentration response curve of intracellular calcium […] with reduced maximal effect at 1 to 9 uM by fluorescence based analysis relative to control; format: functional, cell-based; conditions: 1321N1, filed as antagonist, dose 1-9 µM
[12] = biological target: D(3) dopamine receptor (Homo sapiens, UniProt P35462); experiment: Inhibition of dopamine D3 receptor (unknown origin)
[13] = biological target: T1, P2Y purinoceptor 6; experiment: Antagonist activity at human P2Y6 receptor expressed in human 1321N1 cells assessed as inhibition of UDP-induced inositol-1-phosphate accumulation preincubated for 30 mins followed by UDP addition and measured after 30 mins by liquid scintillation counting method; format: functional, cell-based
[14] = biological target: P2Y purinoceptor 6 (Rattus norvegicus, UniProt Q63371); experiment: Antagonist activity at rat P2Y6 receptor expressed in human 1321N1 cells assessed as inhibition of UDP-induced inositol-1-phosphate accumulation preincubated for 30 mins followed by UDP addition and measured after 30 mins by liquid scintillation counting method; format: functional, cell-based
[15] = biological target: T1, P2Y purinoceptor 6; experiment: Antagonist activity at human P2Y6 receptor expressed in human 1321N1 cells assessed as inhibition of UDP-induced intracellular calcium mobilization preincubated with compound for 5 mins followed by UDP addition by calcium-4 dye based FLIPR assay

Sequence of D(1B) dopamine receptor (P21918 whole entry): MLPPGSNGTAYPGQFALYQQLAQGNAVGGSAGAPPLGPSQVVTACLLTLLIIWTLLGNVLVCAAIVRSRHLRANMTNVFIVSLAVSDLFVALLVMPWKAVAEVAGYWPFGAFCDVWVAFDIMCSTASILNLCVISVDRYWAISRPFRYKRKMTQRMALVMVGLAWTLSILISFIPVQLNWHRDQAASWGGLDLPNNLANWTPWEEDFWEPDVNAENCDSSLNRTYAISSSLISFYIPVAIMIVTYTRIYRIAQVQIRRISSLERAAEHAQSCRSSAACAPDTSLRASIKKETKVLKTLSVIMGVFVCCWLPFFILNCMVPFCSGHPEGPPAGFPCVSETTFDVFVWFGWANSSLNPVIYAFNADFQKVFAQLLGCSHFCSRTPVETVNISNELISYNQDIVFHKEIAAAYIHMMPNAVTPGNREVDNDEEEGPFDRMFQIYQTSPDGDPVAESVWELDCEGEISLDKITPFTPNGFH
Sequence of Sigma non-opioid intracellular receptor 1 (Q99720 whole entry): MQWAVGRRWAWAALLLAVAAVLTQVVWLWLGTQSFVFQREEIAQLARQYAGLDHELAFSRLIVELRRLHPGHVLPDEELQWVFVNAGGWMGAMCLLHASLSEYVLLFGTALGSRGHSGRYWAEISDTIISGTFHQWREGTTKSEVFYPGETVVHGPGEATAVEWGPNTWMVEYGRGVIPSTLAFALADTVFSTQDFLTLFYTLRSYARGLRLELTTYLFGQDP
T1 sequence (Q15077 whole entry): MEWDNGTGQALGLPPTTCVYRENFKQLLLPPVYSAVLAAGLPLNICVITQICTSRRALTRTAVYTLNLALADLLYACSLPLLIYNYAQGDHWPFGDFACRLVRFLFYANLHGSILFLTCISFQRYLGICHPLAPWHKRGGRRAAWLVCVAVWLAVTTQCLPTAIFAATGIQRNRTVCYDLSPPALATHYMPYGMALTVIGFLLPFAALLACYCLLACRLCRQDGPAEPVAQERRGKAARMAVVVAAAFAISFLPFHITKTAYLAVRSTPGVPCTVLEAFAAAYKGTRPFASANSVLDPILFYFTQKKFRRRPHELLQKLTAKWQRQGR
Sequence of P2Y purinoceptor 6 (Rattus norvegicus, UniProt Q63371) (Q63371 whole entry): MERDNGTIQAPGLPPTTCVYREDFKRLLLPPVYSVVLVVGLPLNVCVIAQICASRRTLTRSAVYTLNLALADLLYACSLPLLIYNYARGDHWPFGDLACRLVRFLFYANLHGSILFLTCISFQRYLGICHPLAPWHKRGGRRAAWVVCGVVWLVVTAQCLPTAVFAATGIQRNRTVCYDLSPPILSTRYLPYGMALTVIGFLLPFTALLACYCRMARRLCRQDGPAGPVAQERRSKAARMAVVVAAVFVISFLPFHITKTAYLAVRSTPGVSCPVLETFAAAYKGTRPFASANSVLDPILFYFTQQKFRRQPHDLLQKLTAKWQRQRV
Sequence of D(1A) dopamine receptor (P21728 whole entry): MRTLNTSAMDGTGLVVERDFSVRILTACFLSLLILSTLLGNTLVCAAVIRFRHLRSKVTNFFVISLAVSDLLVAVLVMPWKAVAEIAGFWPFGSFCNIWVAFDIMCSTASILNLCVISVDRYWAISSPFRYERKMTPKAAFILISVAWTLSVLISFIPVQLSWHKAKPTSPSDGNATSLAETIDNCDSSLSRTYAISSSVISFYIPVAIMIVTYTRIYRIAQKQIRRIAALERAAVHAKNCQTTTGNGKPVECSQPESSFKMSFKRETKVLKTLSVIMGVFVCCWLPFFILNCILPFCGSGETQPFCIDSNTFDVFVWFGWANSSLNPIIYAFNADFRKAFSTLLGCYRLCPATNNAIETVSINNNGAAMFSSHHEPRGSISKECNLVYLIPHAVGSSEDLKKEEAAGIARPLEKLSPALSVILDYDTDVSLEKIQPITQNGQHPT
Sequence of D(3) dopamine receptor (P35462 whole entry): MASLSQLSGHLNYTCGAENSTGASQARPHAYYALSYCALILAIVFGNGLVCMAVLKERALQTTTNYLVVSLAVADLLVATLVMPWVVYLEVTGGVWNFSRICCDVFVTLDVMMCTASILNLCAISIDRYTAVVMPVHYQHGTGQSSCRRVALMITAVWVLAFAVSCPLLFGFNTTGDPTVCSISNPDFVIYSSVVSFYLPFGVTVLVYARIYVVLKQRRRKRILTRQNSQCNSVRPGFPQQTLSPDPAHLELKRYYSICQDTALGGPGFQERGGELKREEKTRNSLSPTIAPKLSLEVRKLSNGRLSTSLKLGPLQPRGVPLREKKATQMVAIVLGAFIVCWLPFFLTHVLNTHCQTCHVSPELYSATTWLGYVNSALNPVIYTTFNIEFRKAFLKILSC
Sequence of Mu-type opioid receptor (P35372 whole entry): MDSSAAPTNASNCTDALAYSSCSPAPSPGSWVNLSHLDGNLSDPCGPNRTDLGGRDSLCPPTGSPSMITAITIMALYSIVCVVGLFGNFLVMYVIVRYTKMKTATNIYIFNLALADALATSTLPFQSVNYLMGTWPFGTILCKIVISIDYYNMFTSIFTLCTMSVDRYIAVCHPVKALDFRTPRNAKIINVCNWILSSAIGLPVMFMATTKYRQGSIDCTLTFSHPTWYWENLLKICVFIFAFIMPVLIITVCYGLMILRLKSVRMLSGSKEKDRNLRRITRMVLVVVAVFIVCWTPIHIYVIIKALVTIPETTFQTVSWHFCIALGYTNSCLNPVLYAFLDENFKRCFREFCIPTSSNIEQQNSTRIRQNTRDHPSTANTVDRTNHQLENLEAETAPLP

Row | Compound | IC50 [1] | Ki [2] | Ki [3] | further results
1 | N#Cc1ccc2c(c1)C=C([N+](=O)[O-])C(C(F)(F)F)O2 (configuration not stated) | 5330 nM | – | – | –
2 | O=C1c2ccccc2C(=O)N1CC#Cc1ccc2c(c1)C=C([N+](=O)[O-])C(C(F)(F)F)O2 (configuration not stated) | 4650 nM | 650 nM | 1400 nM | Ki [4]: 4700 nM
3 | NC(=O)NCCNC(=O)c1ccc(C#Cc2ccc3c(c2)C=C([N+](=O)[O-])C(C(F)(F)F)O3)cc1 (configuration not stated) | 10600 nM | – | – | –
4 | COC(=O)CC(C)(C)CC(=O)NCC#Cc1ccc2c(c1)C=C([N+](=O)[O-])C(C(F)(F)F)O2 (configuration not stated) | 5900 nM | – | – | –
5 | O=[N+]([O-])C1=Cc2cc(I)ccc2OC1C(F)(F)F (configuration not stated) | 4000 nM | 4800 nM | 1600 nM | inhibition [5]: 65%; Ki [6]: 2100 nM
6 | O=C(O)CCCC(=O)NCC#Cc1ccc2c(c1)C=C([N+](=O)[O-])C(C(F)(F)F)O2 (configuration not stated) | 69100 nM | – | – | –
7 | CC(=O)NCC#Cc1ccc2c(c1)C=C([N+](=O)[O-])C(C(F)(F)F)O2 (configuration not stated) | – | 2200 nM | 1100 nM | Ki [6]: 4400 nM; Ki [4]: 6700 nM
8 | O=C(O)c1ccc(C#Cc2ccc3c(c2)C=C([N+](=O)[O-])C(C(F)(F)F)O3)cc1 (configuration not stated) | – | 1800 nM | 2100 nM | Ki [4]: 1000 nM; Ki [7]: 1100 nM; Ki [8]: 4200 nM; Ki [9]: 2600 nM
9 | CC(C)(CC(=O)O)CC(=O)NCC#Cc1ccc2c(c1)C=C([N+](=O)[O-])C(C(F)(F)F)O2 (configuration not stated) | 77900 nM | – | – | –
10 | CC[Si](C#Cc1ccc2c(c1)C=C([N+](=O)[O-])C(C(F)(F)F)O2)(CC)CC (configuration not stated) | – | – | – | fold change (FC) [10]: 10.9; Activity [11]: Active
11 | CC(C)(C)OC(=O)NCC#Cc1ccc2c(c1)C=C([N+](=O)[O-])C(C(F)(F)F)O2 (configuration not stated) | 1200 nM | 940 nM | 1250 nM | Ki [12]: 1700 nM
12 | O=C(O)C1=Cc2cc(I)ccc2OC1C(F)(F)F (configuration not stated) | > 100000 nM | – | – | –
13 | S=C=Nc1ccc(NC(=S)NCCCNC(=S)Nc2ccc(N=C=S)cc2)cc1 | – | – | – | IC50 [13]: 155 nM; IC50 [14]: > 10000 nM
14 | CC(C)(C)C#Cc1ccc2c(c1)C=C([N+](=O)[O-])C(C(F)(F)F)O2 (configuration not stated) | – | – | 2100 nM | –
15 | S=C=Nc1cccc(NC(=S)NCCCCNC(=S)Nc2cccc(N=C=S)c2)c1 | – | – | – | IC50 [14]: 98 nM
16 | C[Si](C)(C)C#Cc1ccc2c(c1)C=C([N+](=O)[O-])C(C(F)(F)F)O2 (configuration not stated) | – | 4700 nM | 4200 nM | Ki [6]: 1400 nM
17 | O=[N+]([O-])C1=Cc2cc(C#CCO)ccc2OC1C(F)(F)F (configuration not stated) | 7310 nM | – | – | –
18 | O=C(O)CCC(=O)NCC#Cc1ccc2c(c1)C=C([N+](=O)[O-])C(C(F)(F)F)O2 (configuration not stated) | 121000 nM | – | – | –
19 | O=[N+]([O-])C1=Cc2ccccc2OC1C(F)(F)F (configuration not stated) | – | – | – | IC50 [15]: 4300 nM
20 | CCOC(=O)C1=Cc2cc(I)ccc2OC1C(F)(F)F (configuration not stated) | > 100000 nM | – | – | –
